Experimental findings from patent US20060247320A1, “Compounds for inhibiting KSP kinesin activity” (priority 2005, published 2006) are described below.

Broadly, the IC50 is the concentration at which inhibition is half-maximal.

For the first test, the target named is T1, KSP motor domain (Homo sapiens, UniProt P52732).
T1 sequence (P52732 18-359 limits assumed): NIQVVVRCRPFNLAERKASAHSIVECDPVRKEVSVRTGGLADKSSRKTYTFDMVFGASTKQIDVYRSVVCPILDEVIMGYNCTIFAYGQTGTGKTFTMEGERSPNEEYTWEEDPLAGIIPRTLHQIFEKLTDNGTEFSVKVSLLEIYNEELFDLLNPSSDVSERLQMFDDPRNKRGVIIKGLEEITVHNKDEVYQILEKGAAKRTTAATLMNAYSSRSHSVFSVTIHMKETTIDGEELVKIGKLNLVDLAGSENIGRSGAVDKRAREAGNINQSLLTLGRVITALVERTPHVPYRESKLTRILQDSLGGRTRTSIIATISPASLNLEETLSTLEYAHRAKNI
Kind of test: biochemical. The conditions noted are these: IC50 (nM), KSP inhibitory activity, end-point assay; class symbols (Table 1).
`CCOC(=O)c1sc2nc3c(cc2c1N)CC([Si](C)(C)C)CC3` (stereo not drawn) [Example 187, Ethyl 3-Amino-5,6,7,8-Tetrahydro-6-(Trimethylsilyl)thieno[2,3-b]quinoline-2-Carboxylate] returned an IC50 greater than 10000 nM.
Same read-out and setting: for `CCOC(=O)c1cc2cc3c(nc2s1)CCC([Si](C)(C)C)C3` (stereo not drawn) [Example 188, Ethyl 5,6,7,8-Tetrahydro-6-(Trimethylsilyl)thieno[2,3b]quinoline-2-Carboxylate] the value was greater than 10000 nM; for `C[Si](C)(C)C1CCc2nc3sc(C(=O)NCCN)cc3cc2C1` (stereo not drawn) [Example 191, N-(2-Aminoethyl) 5,6,7,8-Tetrahydro-6-(Trimethylsilyl)thieno[2,3-b]quinoline-2-Carboxamide], less than 100 nM.

The same test, now with this note: IC50 (nM), exact IC50 values, end-point assay (Table 2).
Compound `C[Si](C)(C)C1CCc2nc3sc(C(=O)NCCN)cc3cc2C1` (stereo not drawn) [Example 191, N-(2-Aminoethyl) 5,6,7,8-Tetrahydro-6-(Trimethylsilyl)thieno[2,3-b]quinoline-2-Carboxamide] gave an IC50 of 10 nM.

The test is the same for the next values; noted with them: KSP inhibitory activity, end-point assay; class symbols (Table 1).
Turning to `C[C@@H](CO)NC(=O)c1cc2cc3c(nc2s1)CCC([Si](C)(C)C)C3` (stereo partly drawn) [Example 190, 5,6,7,8-Tetrahydro-N-(2-hydroxy-1(S)-methylethyl)-6-(Trimethylsilyl)thieno[2,3-b]quinoline-2-Carboxamide], the “IC50 (nM)” value was “B/C”.

The same test, now with this note: KSP inhibitory activity, end-point assay; class symbols (Table 1); read-out: IC50.
For `CC(C)(C)C1CCc2nc3sc(C(=O)NCCN)c(N)c3cc2C1` (stereo not drawn) [Example 193, 3-Amino-N-(2-Aminoethyl)-6-(1,1-Dimethylethyl)-5,6,7,8-Tetrahydrothieno[2,3-b]quinoline-2-Carboxamide], the IC50 was 1000 to 10000 nM.
In the case of `CC(C)(C)C1CCc2nc3sc(C(=O)NCCN4CCOCC4)cc3cc2C1` (stereo not drawn) [Example 194, 6-(1,1-Dimethylethyl)-5,7,8-Tetrahydro-N-[2-(4-Morpholinyl)ethyl]thieno[2,3-b]quinoline-2-Carboxamide], the half-inhibitory concentration (IC50) fell in the range of 1000 to 10000 nM.
Still for that read-out and setting: the same measure for `CC(C)(C)C1CCc2nc3sc(C(=O)NCC4CCNCC4)cc3cc2C1` (stereo not drawn) [Example 195, 6-(1,1-Dimethylethyl)-5,6,7,8-Tetrahydro-N-(4-Piperidinylmethyl)thieno[2,3-b]quinoline-2-Carboxamide]: 1000 to 10000 nM.
Still for that read-out and setting: the same measure for `CC(C)(C)C1CCc2nc3sc(C(=O)NCCCN4CCCC4=O)cc3cc2C1` (stereo not drawn) [Example 196, 6-(1,1-Dimethylethyl)-5,6,7,8-Tetrahydro-N-[3-(2-oxo-1-Pyrrolidinyl)propyl]thieno[2,3-b]quinoline-2-Carboxamide]: 1000 to 10000 nM; for `CC(C)(C)C1CCc2nc3sc(C(=O)NCCN4CCNCC4)cc3cc2C1` (stereo not drawn) [Example 197, 6-(1,1-Dimethylethyl)-5,6,7,8-Tetrahydro-N-[2-(1-Piperazinyl)ethyl]thieno[2,3-b]quinoline-2-Carboxamide]: 100 to 1000 nM.
Take `CC(C)(C)C1CCc2nc3sc(C(=O)NCCN4CCCCC4)cc3cc2C1` (stereo not drawn) [Example 198, 6-(1,1-Dimethylethyl)-5,6,7,8-Tetrahydro-N-[2-(1-Piperidinyl)ethyl]thieno[2,3-b]quinoline-2-Carboxamide]: the IC50 fell in the range of 1000 to 10000 nM.
Consider `CC(C)(C)C1CCc2nc3sc(C(=O)NCCN4CCCC4)cc3cc2C1` (stereo not drawn) [Example 199, 6-(1,1-Dimethylethyl)-5,6,7,8-tetrahydro-N-[2-(1-Pyrrolidinyl)ethyl]thieno[2,3-b]quinoline-2-Carboxamide], for which the IC50 is 1000 to 10000 nM.
On the same count and under the same terms, for `CC(C)(C)C1CCc2nc3sc(C(=O)NN4CCOCC4)cc3cc2C1` (stereo not drawn) [Example 200, 6-(1,1-Dimethylethyl)-5,6,7,8-Tetrahydro-N-(4-Morpholinyl)thieno[2,3-b]quinoline-2-Carboxamide] the value was 1000 to 10000 nM; for `CC1Cc2nc3sc(C#N)c(N)c3cc2CC1C(C)(C)C` (stereo not drawn) [Example 202, 3-Amino-6-tert-butyl-7-methyl-5,6,7,8-tetrahydrothieno[2,3-b]quinoline-2-carbonitrile], 100 to 1000 nM.
`CC1Cc2nc3sc(C#N)cc3cc2CC1C(C)(C)C` (stereo not drawn) [Example 203, 6-tert-Butyl-7-methyl-5,6,7,8-tetrahydro-thieno[2,3,-b]quinoline-2-carbonitrile]: the IC50 lay within 100 to 1000 nM.
In the case of `CC1Cc2nc3sc(C(N)=O)cc3cc2CC1C(C)(C)C` (stereo not drawn) [Example 204, 6-tert-Butyl-7-methyl-5,6,7,8-tetrahydro-thieno[2,3,-b]quinoline-2-carboxylic acid amide], the IC50 lay in the range of 100 to 1000 nM.
On the same count and under the same terms, for `CCC1Cc2nc3sc(C#N)c(N)c3cc2CC1C(C)(C)C` (stereo not drawn) [Example 205, 3-Amino-6-tert-butyl-7-ethyl-5,6,7,8-tetrahydrothieno[2,3-b]quinoline-2-carbonitrile] the value was 1000 to 10000 nM.
The same measure, in the same setting: for `CCC1Cc2nc3sc(C#N)cc3cc2CC1C(C)(C)C` (stereo not drawn) [Example 206, 6-tert-Butyl-7-ethyl-5,6,7,8-tetrahydro-thieno[2,3,-b]quinoline-2-carbonitrile] the value was 1000 to 10000 nM; for `CC(C)C1Cc2cc3c(N)c(C#N)sc3nc2CC1C` (stereo not drawn) [Example 207, 3-Amino-6-isopropyl-7-methyl-5,6,7,8-tetrahydro-thieno[2,3-b]quinoline-2-carbonitrile], greater than 10000 nM; for `CC(C)C1Cc2cc3cc(C#N)sc3nc2CC1C` (stereo not drawn) [Example 208, 6-isopropyl-7-methyl-5,6,7,8-tetrahydro-thieno[2,3,-b]quinoline-2-carbonitrile], 100 to 1000 nM.
The same measure, in the same setting: for `CC(C)C1Cc2cc3cc(C(N)=O)sc3nc2CC1C` (stereo not drawn) [Example 209, 6-isopropyl-7-methyl-5,6,7,8-tetrahydro-thieno[2,3,-b]quinoline-2-carboxylic acid amide] the value was 100 to 1000 nM.
Take `CC(C)(C)C1CCc2nc3sc(C(=O)N[C@H](CN)c4cccc(Br)c4)cc3cc2C1` (stereo partly drawn) [Example 210, 6-tert-butyl-5,6,7,8-tetrahydro-thieno[2,3-b]quinoline-2-carboxylic acid [(1S)-2-amino-1-(3-bromo-phenyl)-ethyl]-amide]: the IC50 is 100 to 1000 nM.
As to `CC(C)(C)C1CCc2nc3sc(C(=O)N[C@H](CN)c4cccc(-c5ccccc5)c4)cc3cc2C1` (stereo partly drawn) [Example 211, 6-tert-butyl-5,6,7,8-tetrahydro-thieno[2,3-b]quinoline-2-carboxylic acid [(1S)-2-amino-1-biphenyl-3-yl-ethyl)-amide], the IC50 fell in the range of 100 to 1000 nM.
For `CC(C)(C)C1CCc2nc3sc(C(=O)N[C@H](CN)c4cccc(-c5ccncc5)c4)cc3cc2C1` (stereo partly drawn) [Example 212, 6-tert-butyl-5,6,7,8-tetrahydro-thieno[2,3-b]quinoline-2-carboxylic acid [(1S)-2-amino-1-(3-pyridin-4-yl-phenyl)-ethyl]-amide], the IC50 was 100 to 1000 nM.
The same measure, in the same setting: the same measure for `CC(C)(C)C1CCc2nc3sc(C(=O)N[C@H](CN)c4cccc(-c5cccc6cccnc56)c4)cc3cc2C1` (stereo partly drawn) [Example 213, 6-tert-butyl-5,6,7,8-tetrahydro-thieno[2,3-b]quinoline-2-carboxylic acid [(1S)-2-amino-1-(3-quinolin-8-yl-phenyl)-ethyl]-amide]: 100 to 1000 nM; for `CC(C)(C)C1CCc2nc3sc(C(=O)N[C@H](CN)c4cccc([N+](=O)[O-])c4)cc3cc2C1` (stereo partly drawn) [Example 214]: less than 100 nM; for `CC(C)(C)C1CCc2nc3sc(C(=O)N[C@H](CN)c4ccc([N+](=O)[O-])cc4)cc3cc2C1` (stereo partly drawn) [Example 215]: less than 100 nM.
On the same count and under the same terms, for `CC(C)(C)C1CCc2nc3sc(C(=O)N[C@H](CN)c4ccc(C#N)cc4)cc3cc2C1` (stereo partly drawn) [Example 216] the value was less than 100 nM; for `CC(C)(C)C1CCc2nc3sc(C(=O)N[C@H](CN)c4cccc(N)c4)cc3cc2C1` (stereo partly drawn) [Example 217], less than 100 nM.
Take `CC(C)(C)C1CCc2nc3sc(C(=O)N[C@H](CN)c4ccc(N)cc4)cc3cc2C1` (stereo partly drawn) [Example 218]: the IC50 was less than 100 nM.
